≈ marks a conversion by molar mass, not a printed value. Where a SMILES comes first, the peptide text is derived from it. [ ]: non-standard residue; d: D form. The star is where a group is joined. Orn(α-tetramethylguanidino) = CN(C)C(=N[C@@H](CCCN)C(=O)*)N(C)C; Orn = NCCC[C@H](N)C(=O)O
Columns and labels:
P. aeruginosa elastase [1] = assay: P. aeruginosa elastase (0.012 U/μL) in Tris-HCl (5 mmol/L, pH 8.3); details: 37°C, up to 6 h
[2] = tested on: E. coli DSM 1103 (ATCC 25922); format: cell-based, Escherichia coli; details: DSM 1103, 24 h
Protocol: (§1) MICs of P. aeruginosa strains DSM 1117 (ATCC 27853), DSM 3227 (ATCC 19429), and DSM 9644 were determined in a microdilution broth assay using 50 or 100% MHB (11.5 and 23 g/L MHB, respectively) whereas MICs of E. coli DSM 1103 (ATCC 25922) and K. pneumoniae DSM 681 (ATCC 10031) were determined in TSB (30 g/L TSB). Peptides (1 g/L in water) were serially two-fold diluted in a 96-well microtiter plate (PS, sterile, flat bottom) in 50 μL of the corresponding medium to final concentrations of 512–4 μg/mL. Bacteria were grown in nutrient broth overnight and diluted to a cell concentration of 1.5 × 10^7 cells/mL in the corresponding medium. Cell densities were determined by using the McFarland standard as reference. An aliquot (50 μL) of the cell culture was added to each well and incubated (37°C, 24 h). The OD595 was determined in a SpectraMax 340PC (Molecular Devices, Sunnyvale, USA). Additionally, MIC values were also determined for high bacteria densities (5 × 10^8 cells/mL) corresponding to the conditions used for TEM, as described above.

[3] = tested on: K. pneumoniae DSM 681 (ATCC 10031); format: cell-based, Klebsiella pneumoniae; details: DSM 681, 24 h
Protocol: as §1

[4] = tested on: P. aeruginosa DSM 1117 (ATCC 27853); design: method as in Bluhm et al., 2015; details: 50% MHB; ref Bluhm et al., 2015; cited from earlier work
P. aeruginosa elastase [5] = target: T1, P. aeruginosa elastase (Pseudomonas aeruginosa, UniProt P14756); assay: Elastase assay (proteolytic stability); format: in vitro ADME; details: Pseudomonas aeruginosa; 0.5 g/L peptide, elastase 12 units/mL, Tris-HCl pH 8.3, 37°C; read-out: Half-life time with Pseudomonas elastase
T1 construct: purchased Merck (Darmstadt, Germany)
Protocol: A stock solution of P. aeruginosa elastase (0.26 U/μL) was prepared in Tris-HCl (5 mmol/L, pH 8.3) and stored at −80°C. Peptides (0.5 g/L in 5 mmol/L Tris-HCl, pH 8.3) were incubated with elastase (0.012 U/μL) at 37°C under constant shaking (450 rpm) for 0, 0.5, 2, 4, and 6 h. Aliquots (10.5 μL) were precipitated with a mixture of acetonitrile and ethanol (1:1 v/v) containing 0.1% TFA (21 μL), centrifuged, the supernatant transferred into a new tube, and dried in vacuum. Samples were dissolved in aqueous acetonitrile (3% v/v) containing TFA (0.1% v/v) and analyzed by RP-HPLC using the conditions described above.

[6] = tested on: Primary rat cardiomyocytes; assay: in vitro; format: cell-based; details: 24 h
Protocol: (§2) Human embryonic kidney (HEK293) and HeLa cells were cultured in Dulbecco's modified Eagle's/Ham's F-12 medium [DMEM/F-12 (1:1)] supplemented with FBS (10% v/v), penicillin, and streptomycin (1000 units each). Primary rat cardiomyocytes (Innoprot, Elexalde Derio, Spain) were grown in medium supplemented with FBS (20% v/v), horse serum (5% v/v), L-glutamine (2 mmol/L), sodium pyruvate (2 mmol/L), MEM non-essential amino acids (Gibco, 0.1 mmol/L), penicillin, and streptomycin (1000 units each). Surfaces for cardiomyocyte growth were coated with attachment factor first. Cells (20,000/well) were seeded into a 96-well plate (PS, sterile, flat bottom), incubated for 24 h (37°C, 5% CO2), and washed twice with PBS (100 μl/well) prior to adding colorless medium (88 μL) and peptide solution (12 μL; 5, 2.5, 1.25, […], and 0.625 g/L in PBS). Positive controls were triton X-100 (1%, v/v) and melittin (60 mg/L) as lytic peptide, whereas PBS (12%, v/v) served as negative control. After an incubation period of 24 h, supernatant (25 μL) was mixed with lactate dehydrogenase (LDH) substrate (175 μL; 0.57 mmol/L sodium pyruvate, 0.24 mmol/L NADH disodium salt, 32 mmol/L potassium dihydrogen phosphate, 66 mmol/L dipotassium phosphate) in 96-well plates (PS, sterile, flat bottom). Absorbance was recorded at 340 nm every 3 min for 30 min on the Paradigm microplate reader. Due to the total release of LDH upon triton X-100 treatment, the control contained high LDH concentrations resulting in a fast substrate turnover that was only linear for the first 6 min.
(§3) The MTT cell viability assay relied on the same cell culture. Remaining medium was replaced by a mixture of fresh colorless medium (100 μL) and MTT (10 μL; 5 g/L in PBS) and incubated for 4 h (37°C, 5% CO2). A solution of sodium dodecyl sulfate (100 μL; 10%, w/v) dissolved in hydrochloric acid (10 mmol/L) was added, incubated (16 h), and the absorbance recorded at 590 nm relative to the reference at 650 nm (Paradigm microplate reader). The relative cell viability was calculated by [(ODPeptide − ODTriton)/(ODPBS − ODTriton)] × 100% and half-maximal inhibitory concentrations (IC50) with an Excel-template from cell biology protocols (www.sciencegateway.org/ protocols/cellbio/drug/hcic50.htm). For statistical analysis an unpaired t-test was applied using GraphPad Prism 5.0.

in vitro [7] = format: cell-based, human; details: human
Protocol: as §2, §3

HEK293 cells = assay: in vitro; format: cell-based, human; details: 24 h
Protocol: as §2, §3

in vitro [8] = format: cell-based; details: human
Protocol: as §2, §3

HeLa cells = assay: in vitro; format: cell-based; details: 24 h
Protocol: as §2, §3

in vitro [9] = details: mouse, mouse serum, Half-life time mouse serum, 37°C
Protocol: Peptide solutions (1 g/L) were added to mouse serum to obtain final concentrations of 70 mg/L peptide and incubated under constant shaking at 37°C. After 0, 1, 2, 3, and 6 h aliquots (95 μL) were precipitated with aqueous TCA (25 μL, 15% w/v), incubated for 10 min on ice, and centrifuged (5 min, 12,000 × g, Eppendorf mini spin centrifuge). An aliquot of the supernatant (95 μL) was neutralized with sodium hydroxide (8 μL, 1 mol/L) and diluted with aqueous acetonitrile solution (3% acetonitrile, 0.1% TFA; 200 μL). Peptides were quantified by the peak areas obtained by analytical RP-HPLC on a Jupiter C18-column (ID: 2 mm) using a linear aqueous acetonitrile gradient with 0.1% (v/v) TFA (absorbance recorded at 214 nm). Peak areas of all time points were normalized to the initial peak area obtained after “0 min incubation” (= 100%). Experiments were carried out as triplicates in parallel and half-life times were calculated using GraphPad Prism 5.0.

T1 sequence (P14756 198-498): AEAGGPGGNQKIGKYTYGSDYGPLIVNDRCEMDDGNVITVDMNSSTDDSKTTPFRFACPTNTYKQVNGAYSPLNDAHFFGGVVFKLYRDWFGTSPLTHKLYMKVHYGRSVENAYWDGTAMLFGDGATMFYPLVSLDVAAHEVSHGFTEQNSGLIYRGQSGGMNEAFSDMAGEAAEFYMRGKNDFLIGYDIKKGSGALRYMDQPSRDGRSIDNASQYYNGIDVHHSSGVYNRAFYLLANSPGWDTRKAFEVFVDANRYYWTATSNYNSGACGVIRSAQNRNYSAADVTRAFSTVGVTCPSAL

gu-O(IO)2RPVYOPRPRPPHPRL-OH
not cleaved (P. aeruginosa elastase [1]): 92 ± 4% detected after 30 min and for all later time points (6 h)

CC[C@H](C)[C@H](NC(=O)[C@H](CCCN)N=C(N(C)C)N(C)C)C(=O)N[C@@H](CCCN)C(=O)N[C@@H](CCCNC(=N)N)C(=O)N1CCC[C@H]1C(=O)N[C@H](C(=O)N[C@@H](Cc1ccc(O)cc1)C(=O)N[C@@H](CCCN)C(=O)N1CCC[C@H]1C(=O)N[C@@H](CCCNC(=N)N)C(=O)N1CCC[C@H]1C(=O)N[C@@H](CCCNC(=N)N)C(=O)N1CCC[C@H]1C(=O)N1CCC[C@H]1C(=O)N[C@@H](Cc1c[nH]cn1)C(=O)N1CCC[C@H]1C(=O)N[C@@H](CCCNC(=N)N)C(=O)N[C@@H](CC(C)C)C(=O)O)C(C)C [Api755, gu-OIORPVYOPRPRPPHPRL-OH, reference compound] ({Orn(α-tetramethylguanidino)}-I[Orn]RPVY[Orn]PRPRPPHPRL-OH)
MIC E. coli ATCC 25922 [2]: 8 µg/mL (≈ 3.49 µM) | MIC K. pneumoniae DSM 681 [3]: 8 µg/mL (≈ 3.49 µM) | times more active than Api137 against P. aeruginosa [4]: 16

CC[C@H](C)[C@H](NC(=O)[C@H](CCCCN)NC(=O)[C@H](CCC(=O)O)NC(=O)[C@H](CCCCN)NC(=O)[C@H](CO)NC(=O)[C@H](CCCCN)NC(=O)[C@H](CCCNC(=N)N)NC(=O)[C@H](Cc1ccccc1)NC(=O)[C@H](Cc1ccccc1)NC(=O)[C@H](CC(=O)O)NC(=O)CNC(=O)[C@H](CC(C)C)NC(=O)[C@@H](N)CC(C)C)C(=O)NCC(=O)N[C@@H](CCCCN)C(=O)N[C@@H](CCC(=O)O)C(=O)N[C@@H](Cc1ccccc1)C(=O)N[C@@H](CCCCN)C(=O)N[C@@H](CCCNC(=N)N)C(=O)N[C@H](C(=O)N[C@H](C(=O)N[C@@H](CCC(N)=O)C(=O)N[C@@H](CCCNC(=N)N)C(=O)N[C@H](C(=O)N[C@@H](CCCCN)C(=O)N[C@@H](CC(=O)O)C(=O)N[C@@H](Cc1ccccc1)C(=O)N[C@@H](CC(C)C)C(=O)N[C@@H](CCCNC(=N)N)C(=O)N[C@@H](CC(N)=O)C(=O)N[C@@H](CC(C)C)C(=O)N[C@H](C(=O)N1CCC[C@H]1C(=O)N[C@@H](CCCNC(=N)N)C(=O)N[C@H](C(=O)N[C@@H](CCC(=O)O)C(=O)N[C@@H](CO)C(=O)O)[C@@H](C)O)C(C)C)[C@@H](C)CC)C(C)C)[C@@H](C)CC [LL-37, reference compound]
half-life at 0.5 g/L (P. aeruginosa elastase [5]): 3 min

CC[C@H](C)[C@H](NC(=O)[C@H](CCCN)N=C(N(C)C)N(C)C)C(=O)N[C@@H](CCCN)C(=O)N[C@H](C(=O)N[C@@H](CCCN)C(=O)N[C@H](C(=O)N[C@@H](CCCN)C(=O)N[C@@H](CCCNC(=N)N)C(=O)N1CCC[C@H]1C(=O)N[C@H](C(=O)N[C@@H](Cc1ccc(O)cc1)C(=O)N[C@@H](CCCN)C(=O)N1CCC[C@H]1C(=O)N[C@@H](CCCNC(=N)N)C(=O)N1CCC[C@H]1C(=O)N[C@@H](CCCNC(=N)N)C(=O)N1CCC[C@H]1C(=O)N1CCC[C@H]1C(=O)N[C@@H](Cc1c[nH]cn1)C(=O)N1CCC[C@H]1C(=O)N[C@@H](CCCNC(=N)N)C(=O)N[C@@H](CC(C)C)C(=O)O)C(C)C)[C@@H](C)CC)[C@@H](C)CC [Api796, GuO(IO)3RPVYOPRPRPPHPRL] ({Orn(α-tetramethylguanidino)}-I[Orn]I[Orn]I[Orn]RPVY[Orn]PRPRPPHPRL-OH)
MIC E. coli ATCC 25922 [2]: 8 µg/mL (≈ 2.91 µM) | MIC K. pneumoniae DSM 681 [3]: 16 µg/mL (≈ 5.83 µM) | IC50 on cell viability [6]: >0.6 g/L | viability at 24 h, 0.6 g/L (in vitro [7]): ~60% | IC50 on cell viability (HEK293 cells): >0.6 g/L | viability at 24 h, 0.6 g/L (in vitro [8]): 61 ± 14% | IC50 on cell viability (HeLa cells): >0.6 g/L | half-life at 70 mg/L (in vitro [9]): 249 min

gu-ONNRPVYIPRPRPPHPRL-OH
not cleaved (P. aeruginosa elastase [1]): fully recovered after an incubation period of 6 h

CC(C)C[C@H](NC(=O)[C@H](CCCNC(=N)N)NC(=O)[C@@H]1CCCN1C(=O)[C@H](Cc1c[nH]cn1)NC(=O)[C@@H]1CCCN1C(=O)[C@@H]1CCCN1C(=O)[C@H](CCCNC(=N)N)NC(=O)[C@@H]1CCCN1C(=O)[C@H](CCCNC(=N)N)NC(=O)[C@@H]1CCCN1C(=O)[C@H](CCCN)NC(=O)[C@H](Cc1ccc(O)cc1)NC(=O)[C@@H](NC(=O)[C@@H]1CCCN1C(=O)[C@H](CCCNC(=N)N)NC(=O)[C@H](CCCN)NC(=O)[C@H](Cc1c[nH]c2ccccc12)NC(=O)[C@H](CCCN)N=C(N(C)C)N(C)C)C(C)C)C(=O)O [Api760, gu-OWORPVYOPRPRPPHPRL-OH, reference compound] ({Orn(α-tetramethylguanidino)}-W[Orn]RPVY[Orn]PRPRPPHPRL-OH)
MIC E. coli ATCC 25922 [2]: 8 µg/mL (≈ 3.38 µM) | MIC K. pneumoniae DSM 681 [3]: 8 µg/mL (≈ 3.38 µM) | times more active than Api137 against P. aeruginosa [4]: 16

CC(C)C[C@H](NC(=O)[C@H](CCCNC(=N)N)NC(=O)[C@@H]1CCCN1C(=O)[C@H](Cc1c[nH]cn1)NC(=O)[C@@H]1CCCN1C(=O)[C@@H]1CCCN1C(=O)[C@H](CCCNC(=N)N)NC(=O)[C@@H]1CCCN1C(=O)[C@H](CCCNC(=N)N)NC(=O)[C@@H]1CCCN1C(=O)[C@H](CCCN)NC(=O)[C@H](Cc1ccc(O)cc1)NC(=O)[C@@H](NC(=O)[C@@H]1CCCN1C(=O)[C@H](CCCNC(=N)N)NC(=O)[C@H](CCCN)NC(=O)[C@H](Cc1c[nH]c2ccccc12)NC(=O)[C@H](CCCN)NC(=O)[C@H](Cc1c[nH]c2ccccc12)NC(=O)[C@H](CCCN)N=C(N(C)C)N(C)C)C(C)C)C(=O)O [Api793, guO(WO)2RPVYOPRPRPPHPRL] ({Orn(α-tetramethylguanidino)}-W[Orn]W[Orn]RPVY[Orn]PRPRPPHPRL-OH)
MIC E. coli ATCC 25922 [2]: 8 µg/mL (≈ 3 µM) | MIC K. pneumoniae DSM 681 [3]: 16 µg/mL (≈ 6 µM) | IC50 on cell viability [6]: >0.6 g/L | IC50 on cell viability (HEK293 cells): 0.64 ± 0.05 g/L (≈ 240 µM) | IC50 on cell viability (HeLa cells): 0.64 ± 0.15 g/L (≈ 240 µM) | half-life at 70 mg/L (in vitro [9]): 246 min

Reference: article PMC4861708 (Frontiers in Cell and Developmental Biology, 2016)
